Values joined by “and” are separate entries in the source; they are usually repeats but may differ in a detail not shown here. Equal entries are not always repeated. Toxic doses and inconclusive results are not listed. How the source made its calls: active means survival T/C of 150% or more; inactive means T/C below 125% in these data. Numbered stars: 1 amine (or outer) side, 2 acyl side, 3 side chain; on linkers, the order of the positions; unused ones are H or OH. Peptide text beside a SMILES is read from it. CO = O=C([*:1])[*:2]
System: P388 leukemia ip, CD2F1 mice, survival T/C
Experiment: NCI In Vivo Anticancer Drug Screen. Data for tumor model P388 Leukemia (intraperitoneal) in CD2F1 (CDF1) mice
Details: endpoint: median survival time, higher = longer survival
Method in brief: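 Mice carrying the transplanted tumor received test compound or vehicle. Survival was recorded in each group, and the value is the treated-group measurement divided by that of the vehicle-treated control group.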

[1] = dose: 100.0 mg/kg/injection, schedule: Q01DX001 (ip), vehicle: saline with Tween-80
[2] = dose: 200.0 mg/kg/injection, schedule: Q01DX001 (ip), vehicle: saline with Tween-80
[3] = dose: 400.0 mg/kg/injection, schedule: Q01DX001 (ip), vehicle: saline with Tween-80
[4] = dose: 50.0 mg/kg/injection, schedule: Q01DX009 (ip), vehicle: Klucel (hydroxypropylcellulose) (HPC)
[5] = dose: 100.0 mg/kg/injection, schedule: Q01DX009 (ip), vehicle: Klucel (hydroxypropylcellulose) (HPC)
[6] = dose: 200.0 mg/kg/injection, schedule: Q01DX009 (ip), vehicle: Klucel (hydroxypropylcellulose) (HPC)

Measured: T/C

CC(C)C(NC(=O)C(CCCN=C(N)N)NC(=O)NC(Cc1ccccc1)C(=O)O)C(=O)NC(C=O)Cc1ccccc1 (stereo not drawn) ({Phe-CO}-Arg-Val-Phe-aldehyde; configuration not given here)
inactive: dose: 8.25 mg/kg/injection, schedule: Q01DX005 (ip), vehicle: Klucel (hydroxypropylcellulose) (HPC) 95 % of control | dose: 8.75 mg/kg/injection, schedule: Q01DX005 (ip), vehicle: Klucel (hydroxypropylcellulose) (HPC) 99 % of control | dose: 16.5 mg/kg/injection, schedule: Q01DX005 (ip), vehicle: Klucel (hydroxypropylcellulose) (HPC) 92 % of control | dose: 17.5 mg/kg/injection, schedule: Q01DX005 (ip), vehicle: Klucel (hydroxypropylcellulose) (HPC) 99 % of control | dose: 33.0 mg/kg/injection, schedule: Q01DX005 (ip), vehicle: Klucel (hydroxypropylcellulose) (HPC) 93 % of control | dose: 35.0 mg/kg/injection, schedule: Q01DX005 (ip), vehicle: Klucel (hydroxypropylcellulose) (HPC) 93 % of control | dose: 66.0 mg/kg/injection, schedule: Q01DX005 (ip), vehicle: Klucel (hydroxypropylcellulose) (HPC) 92 % of control | dose: 70.0 mg/kg/injection, schedule: Q01DX005 (ip), vehicle: Klucel (hydroxypropylcellulose) (HPC) 87 % of control

CS(=O)(=O)NC(=O)NC(=S)c1ccc(Br)cc1
inactive: [1] 103 % of control | [2] 101 % of control | [3] 107 % of control

O=C1CC2CCCCC2CC1c1ccccc1 (stereo not drawn)
inactive: [4] 104 % of control | [5] 88 % of control | [6] 95 % of control

CC1(C(N)=O)CCSc2ccccc2C1=O (stereo not drawn)
inactive: dose: 50.0 mg/kg/injection, schedule: Q01DX005 (ip), vehicle: saline with Tween-80 95 % of control | dose: 100.0 mg/kg/injection, schedule: Q01DX005 (ip), vehicle: saline with Tween-80 92 % of control | dose: 200.0 mg/kg/injection, schedule: Q01DX005 (ip), vehicle: saline with Tween-80 94 % of control

c1ccc(-c2c[n+]3ccccc3n2-c2ccccc2)cc1
inactive: dose: 1.56 mg/kg/injection, schedule: Q01DX009 (ip), vehicle: saline 100 % of control | dose: 3.12 mg/kg/injection, schedule: Q01DX009 (ip), vehicle: saline 94 % of control | dose: 6.25 mg/kg/injection, schedule: Q01DX009 (ip), vehicle: saline 101 % of control and 92 % of control

C(/C=C/c1cc2cc(C3=NCCN3)ccc2o1)=C\c1ccc(C2=NCCN2)cc1
inactive: dose: 100.0 mg/kg/injection, schedule: Q04DX003 (ip), vehicle: saline 114 % of control | dose: 200.0 mg/kg/injection, schedule: Q04DX003 (ip), vehicle: saline 119 % of control | dose: 400.0 mg/kg/injection, schedule: Q04DX003 (ip), vehicle: saline 118 % of control

Cc1cc(C)c(C(=O)CCl)c(C)c1C(=O)CCl
inactive: [1] 102 % of control | [2] 110 % of control | [3] 109 % of control

CC(=O)OCC12CCC(C)=CC1OC1C(=O)CC2(C)C12CO2 (stereo not drawn)
inactive: dose: 0.5 mg/kg/injection, schedule: Q01DX009 (ip), vehicle: saline 100 % of control | dose: 1.0 mg/kg/injection, schedule: Q01DX009 (ip), vehicle: saline 101 % of control | dose: 2.0 mg/kg/injection, schedule: Q01DX009 (ip), vehicle: saline 94 % of control | dose: 4.0 mg/kg/injection, schedule: Q01DX009 (ip), vehicle: saline 110 % of control

O=C1OC(=O)C2CCCC1C2
inactive: [4] 108 % of control | [5] 102 % of control | [6] 102 % of control

— PubChem BioAssay AID330 (DTP/NCI, 2004)
